Results as given in ChEMBL document CHEMBL1124001, “Synthesis and antileukemic activity of bis[[(carbamoyl)oxy]methyl]- substituted pyrrolo[2,1-a]isoquinolines, pyrrolo[1,2-a]quinolines, pyrrolo[2,1-a]isobenzazepines, and pyrrolo[1,2-a]benzazepines” (J Med Chem, 1988).

What was measured:
Mus musculus [1] = test: Ratio of treated to that of untreated tumor-bearing control animals at 15 mg/kg intraperitoneally in CD2F1 mice was determined; type: functional; settings: route intraperitoneal
Mus musculus [2] = test: Toxicity day survivors was determined by the ratio of animals survived to that of test animals at 60 mg/kg intraperitoneally in CD2F1 mice; 4/6; type: organism-based; set-up: dose 60 mg/kg, route intraperitoneal; settings: in vivo, ip
Mus musculus [3] = test: Toxicity day survivors was determined by the ratio of animals survived to that of test animals at 15 mg/kg intraperitoneally in CD2F1 mice; 6/6; type: organism-based; set-up: dose 15 mg/kg, route intraperitoneal; settings: in vivo, ip
Mus musculus [4] = test: Body weight change of test animals to that of control was determined after injection at 60 mg/kg intraperitoneally in CD2F1 mice; type: functional; settings: route intraperitoneal
Mus musculus [5] = test: Toxicity day survivors was determined by the ratio of animals survived to that of test animals at 3.75 mg/kg intraperitoneally in CD2F1 mice; 6/6; type: organism-based; set-up: dose 3.75 mg/kg, route intraperitoneal; settings: in vivo, ip
Mus musculus [6] = test: Net log cell kill was determined after injecting 1.87 mg/kg intraperitoneally in CD2F1 mice; type: functional; settings: route intraperitoneal
Mus musculus [7] = test: Body weight change of test animals to that of control was determined after injection at 3.75 mg/kg intraperitoneally in CD2F1 mice; type: functional; settings: route intraperitoneal
Mus musculus [8] = test: Body weight change of test animals to that of control was determined after injection at 1.87 mg/kg intraperitoneally in CD2F1 mice; type: functional; settings: route intraperitoneal
Mus musculus [9] = test: Toxicity day survivors was determined by the ratio of animals survived to that of test animals at 1.87 mg/kg intraperitoneally in CD2F1 mice; 6/6; type: organism-based; set-up: dose 1.87 mg/kg, route intraperitoneal; settings: in vivo, ip
Mus musculus [10] = test: Net log cell kill was determined after injecting 15 mg/kg intraperitoneally in CD2F1 mice; type: functional; settings: route intraperitoneal
Mus musculus [11] = test: Ratio of treated to that of untreated tumor-bearing control animals at 7.5 mg/kg intraperitoneally in CD2F1 mice was determined; type: functional; settings: route intraperitoneal
Mus musculus [12] = test: Body weight change of test animals to that of control was determined after injection at 15 mg/kg intraperitoneally in CD2F1 mice; type: functional; settings: route intraperitoneal
Mus musculus [13] = test: Ratio of treated to that of untreated tumor-bearing control animals at 3.75 mg/kg intraperitoneally in CD2F1 mice was determined; type: functional; settings: route intraperitoneal
Mus musculus [14] = test: Net log cell kill was determined after injecting 3.75 mg/kg intraperitoneally in CD2F1 mice; type: functional; settings: route intraperitoneal
Mus musculus [15] = test: Toxicity day survivors was determined by the ratio of animals survived to that of test animals at 7.5 mg/kg intraperitoneally in CD2F1 mice; 6/6; type: organism-based; set-up: dose 7.5 mg/kg, route intraperitoneal; settings: in vivo, ip
Mus musculus [16] = test: Body weight change of test animals to that of control was determined after injection at 7.5 mg/kg intraperitoneally in CD2F1 mice; type: functional; settings: route intraperitoneal
Mus musculus [17] = test: Net log cell kill was determined after injecting 7.5 mg/kg intraperitoneally in CD2F1 mice; type: functional; settings: route intraperitoneal
Mus musculus [18] = test: Ratio of treated to that of untreated tumor-bearing control animals at 1.87 mg/kg intraperitoneally in CD2F1 mice was determined; type: functional; settings: route intraperitoneal
Mus musculus [19] = test: Toxicity day survivors was determined by the ratio of animals survived to that of test animals at 120 mg/kg intraperitoneally in CD2F1 mice; 6/6; type: organism-based; set-up: dose 120 mg/kg, route intraperitoneal; settings: in vivo, ip
Mus musculus [20] = test: Net log cell kill was determined after injecting 480 mg/kg intraperitoneally in CD2F1 mice; type: functional; settings: route intraperitoneal
Mus musculus [21] = test: Ratio of treated to that of untreated tumor-bearing control animals at 480 mg/kg intraperitoneally in CD2F1 mice was determined; type: functional; settings: route intraperitoneal
Mus musculus [22] = test: Toxicity day survivors was determined by the ratio of animals survived to that of test animals at 480 mg/kg intraperitoneally in CD2F1 mice; 6/6; type: organism-based; set-up: dose 480 mg/kg, route intraperitoneal; settings: in vivo, ip
Mus musculus [23] = test: Net log cell kill was determined after injecting 120 mg/kg intraperitoneally in CD2F1 mice; type: functional; settings: route intraperitoneal
Mus musculus [24] = test: Toxicity day survivors was determined by the ratio of animals survived to that of test animals at 240 mg/kg intraperitoneally in CD2F1 mice; 6/6; type: organism-based; set-up: dose 240 mg/kg, route intraperitoneal; settings: in vivo, ip
Mus musculus [25] = test: Body weight change of test animals to that of control was determined after injection at 240 mg/kg intraperitoneally in CD2F1 mice; type: functional; settings: route intraperitoneal
Mus musculus [26] = test: Toxicity day survivors was determined by the ratio of animals survived to that of test animals at 60 mg/kg intraperitoneally in CD2F1 mice; 6/6; type: organism-based; set-up: dose 60 mg/kg, route intraperitoneal; settings: in vivo, ip
Mus musculus [27] = test: Net log cell kill was determined after injecting 240 mg/kg intraperitoneally in CD2F1 mice; type: functional; settings: route intraperitoneal
Mus musculus [28] = test: Ratio of treated to that of untreated tumor-bearing control animals at 240 mg/kg intraperitoneally in CD2F1 mice was determined; type: functional; settings: route intraperitoneal
Mus musculus [29] = test: Ratio of treated to that of untreated tumor-bearing control animals at 120 mg/kg intraperitoneally in CD2F1 mice was determined; type: functional; settings: route intraperitoneal
Mus musculus [30] = test: Body weight change of test animals to that of control was determined after injection at 120 mg/kg intraperitoneally in CD2F1 mice; type: functional; settings: route intraperitoneal
Mus musculus [31] = test: Net log cell kill was determined after injecting 60 mg/kg intraperitoneally in CD2F1 mice; type: functional; settings: route intraperitoneal
Mus musculus [32] = test: Body weight change of test animals to that of control was determined after injection at 480 mg/kg intraperitoneally in CD2F1 mice; type: functional; settings: route intraperitoneal
Mus musculus [33] = test: Ratio of treated to that of untreated tumor-bearing control animals at 60 mg/kg intraperitoneally in CD2F1 mice was determined; type: functional; settings: route intraperitoneal
Mus musculus [34] = test: Ratio of treated to that of untreated tumor-bearing control animals 30 mg/kg intraperitoneally in CD2F1 mice was determined; type: functional; settings: route intraperitoneal
Mus musculus [35] = test: Toxicity day survivors was determined by the ratio of animals survived to that of test animals at 30 mg/kg intraperitoneally in CD2F1 mice; 6/6; type: organism-based; set-up: dose 30 mg/kg, route intraperitoneal; settings: in vivo, ip
Mus musculus [36] = test: Net log cell kill was determined after injecting 30 mg/kg intraperitoneally in CD2F1 mice; type: functional; settings: route intraperitoneal
Mus musculus [37] = test: Body weight change of test animals to that of control was determined after injection at 30 mg/kg intraperitoneally in CD2F1 mice; type: functional; settings: route intraperitoneal
Mus musculus [38] = species: Mus musculus; test: Ratio of treated to that of untreated tumor-bearing control animals was determined; type: functional

| SMILES | T/C (Mus musculus [1]) | TDS (Mus musculus [3]) | T-C (Mus musculus [4]) | KE (Mus musculus [10]) | T-C (Mus musculus [12]) | TDS (Mus musculus [19]) | KE (Mus musculus [23]) | TDS (Mus musculus [24]) | T-C (Mus musculus [25]) | TDS (Mus musculus [26]) | KE (Mus musculus [27]) | T/C (Mus musculus [28]) | T/C (Mus musculus [29]) | T-C (Mus musculus [30]) | KE (Mus musculus [31]) | other results |
| --- | --- | --- | --- | --- | --- | --- | --- | --- | --- | --- | --- | --- | --- | --- | --- | --- |
| CNC(=O)OCc1c(COC(=O)NC)c2n(c1C)-c1ccc(OC)cc1CCC2 | 144% | 6 | -2.8 g | 0.27 | -1.2 g | – | – | – | – | – | – | – | – | – | – | TDS (Mus musculus [2]): 4; TDS (Mus musculus [5]): 6; KE (Mus musculus [6]): -0.74; T-C (Mus musculus [7]): -1.6 g; T-C (Mus musculus [8]): -1 g; TDS (Mus musculus [9]): 6; T/C (Mus musculus [11]): 147%; T/C (Mus musculus [13]): 135%; KE (Mus musculus [14]): -0.06; TDS (Mus musculus [15]): 6; T-C (Mus musculus [16]): -1.3 g; KE (Mus musculus [17]): 0.55; T/C (Mus musculus [18]): 125% |
| CC(C)NC(=O)OCc1cn2c(c1COC(=O)NC(C)C)-c1cc(Cl)c(Cl)cc1CC2 | – | – | -0.4 g | – | – | 6 | -0.68 | 6 | -2.3 g | 6 | 0.1 | 137% | 130% | -2.2 g | -1.54 | KE (Mus musculus [20]): 5.05; T/C (Mus musculus [21]): 185%; TDS (Mus musculus [22]): 6; T-C (Mus musculus [32]): -3.6 g; T/C (Mus musculus [33]): 86% |
| COc1ccc2c(ccc3c(COC(=O)NC(C)C)c(COC(=O)NC(C)C)c(C)n32)c1 | 109% | 6 | 0.1 g | -1.47 | -0.1 g | 6 | -0.12 | 6 | -3.5 g | 6 | 1.19 | 154% | 131% | -0.6 g | -0.3 | T/C (Mus musculus [34]): 112%; TDS (Mus musculus [35]): 6; KE (Mus musculus [36]): -0.42; T-C (Mus musculus [37]): 0 g; T/C (Mus musculus [38]): 128% |
